Experiments:
Type in all cases: cell-based
[1] = tested on: PaCa-2 pancreatic cancer cells; assay: SeaHorse XF analyzer OCR and ECAR
Source text: Environmental influencers (e.g., MIMs or Epi-shifters) may also be identified by changes in cellular energetics. One example of the measurement of cellular energetics are the real-time measures of the consumption of molecular oxygen and/or the change in pH of the media of a cell culture. For example, the ability of a potential epi-shifter to modulate the metabolic state of a cell may be analyzed using, for example, the XF24 Analyzer (Seahorse, Inc.). This technology allows for real time detection of oxygen and pH changes in a monolayer of cells in order to evaluate the bioenergetics of a cell microenvironment. The XF24 Analyzer measures and compares the rates of oxygen consumption (OCR), which is a measure of aerobic metabolism, and extracellular acidification (ECAR), which is a measure of glycolysis, both key indicators of cellular energetics.
(SeaHorse Biosciences Inc, North Billerica, Mass.).
In contrast, cancer cells (e.g., MCF-7, PaCa-2) are inherently primed to culture at higher levels of glucose compared to normal cells due to their glycolytic phenotype for maintenance in culture.
In contrast to normal cells, cancer cells are phenotypically primed to use high glucose for ATP generation (enhanced glycolysis) resulting in higher ECAR (Table 55, ECAR for untreated normoxia 17 mM) at 21 mpH/min. […]

[2] = tested on: Pancreatic Cancer Cells (PaCa2); assay: Real-time PCR Angiogenesis Array; settings: 100 uM Q10, various times
Method: (§1) Experiments were carried out essentially as described above.

[3] = tested on: Pancreatic Cancer Cells (PaCa2); assay: Real-time PCR Apoptosis Array; settings: 100 uM Q10, various times
Method: as §1

[4] = tested on: SCC cells; assay: Real-time PCR Diabetes Array; settings: 100 μM Q10, at 6 hours
Source text: (§2) The control cells were untreated cells.
(§3) RNA was quantified by measuring Optical Density at 260 nm.

[5] = tested on: SCC cells; assay: Real-time PCR Heat Shock Protein Array
Source text: as §2, §3
Heat Shock Arrays were run for SCC cells and the data of regulated genes is summarized below in Table 13.

[6] = tested on: variety of cell types; assay: Western blot analysis (Bcl-xL, Vimentin, oxidative phosphorylation complexes, mitochondrial membrane integrity proteins); settings: 50 or 100 μM Q10
Method: Approximately 50 μg of protein were assayed per sample by immunoblotting. All treatments were run in triplicate with controls. […] The primary antibodies were incubated overnight at 4 degrees C. in a 5% BSA and TBST solution. Secondary antibodies were incubated for one hour at 4 degrees. All antibodies were purchased from Cell Signaling Technology. Antibodies were used at a ratio of 1:1000, with the exception of βActin at a ratio of 1:5000. Blots were developed and results were quantified using the NIH Java based densitometer analysis software Image J. All blots were also probed for and normalized to their respective βActin expression.
The first experiment processed and evaluated by Western blot and 2-D gel electrophoresis was carried out on the skin cancer cell line SKMEL-28.
A variety of cell types were evaluated by Western blot analysis against an antibody for Bcl-xL (FIG. 14), an antibody for Vimentin (FIG. 15), a series of antibodies for mitochondrial oxidative phosphorylation function (FIGS. 16-21) and against a series of antibodies related to mitochondrial membrane integrity (FIGS. 22-27).

Compound: COC1=C(OC)C(=O)C(C/C=C(\C)CC/C=C(\C)CC/C=C(\C)CC/C=C(\C)CC/C=C(\C)CC/C=C(\C)CC/C=C(\C)CC/C=C(\C)CC/C=C(\C)CCC=C(C)C)=C(C)C1=O [Q10, Coenzyme Q10]
- OCR values ([1]; absence and presence of stressors): consistent reduction
- ECAR rates ([1]; normoxia, high glucose): significant decrease
- mRNA of AKT1, ANGPTL4, ANGPEP, CCL2, CDH4, CXCL1, EDG1, EFNA3, EFNB2, EGF, FGF1, ID3, IL1B, 1L8, KDR, NRP1, PECAM1, PROK2, SERPINF1, SPHK1, STAB1, TGFB1, VEGFA and VEGFB [2]: modulated
- mRNA of ABL1, AKT1, Bcl2L1, BclAF1, CASP1, CASP2, CASP6, CIDEA, FADD, LTA, TNF, TNFSF10A and TNFSF10 [3]: modulated
- INPPL1 Regulation [4]: Down regulated at
- DNAJB5 mRNA Regulation ([5]; 100 μM Q10, 6 hours): Down regulated
- DNAJB13 mRNA Regulation ([5]; 100 μM Q10, 6 hours): Down regulated
- DNAJC4 mRNA Regulation ([5]; 100 μM Q10, 6 hours): Down regulated
- DNAJC5B mRNA Regulation ([5]; 100 μM Q10, 6 hours): Down regulated
- DNAJC12 mRNA Regulation ([5]; 100 μM Q10, 6 hours): Down regulated
- CCT6B mRNA Regulation ([5]; 100 μM Q10, 24 hours): Down regulated
- levels of examined proteins (Bcl-xL, Vimentin, oxidative phosphorylation and mitochondrial membrane integrity proteins) [6]: upregulated or downregulated
